Measured values reported in PubChem BioAssay (NCI).
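Method: 48-hour compound exposure of cells in 96-well plates, five concentrations, linear interpolation of endpoints. GI50 is the concentration that inhibits growth by half. TGI: concentration producing complete growth inhibition.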

Experiments:
Assay in all cases: growth of human tumour cells (NCI), 48 h
SW-620 colon = test system: SW-620 colon
COLO 205 colon = test system: COLO 205 colon
KM12 colon = test system: KM12 colon
A498 renal = test system: A498 renal
CAKI-1 renal = test system: CAKI-1 renal
SK-MEL-28 melanoma = test system: SK-MEL-28 melanoma
NCI/ADR-RES ovarian = test system: NCI/ADR-RES ovarian
SK-MEL-2 melanoma = test system: SK-MEL-2 melanoma
HCT-15 colon = test system: HCT-15 colon
U251 CNS = test system: U251 CNS
SNB-75 CNS = test system: SNB-75 CNS
OVCAR-3 ovarian = test system: OVCAR-3 ovarian
RPMI-8226 leukemia = test system: RPMI-8226 leukemia
HOP-62 NSCLC = test system: HOP-62 NSCLC
NCI-H23 lung = test system: NCI-H23 lung
PC-3 prostate = test system: PC-3 prostate
SN12C renal = test system: SN12C renal
SF-295 CNS = test system: SF-295 CNS
SR leukemia = test system: SR leukemia
OVCAR-4 ovarian = test system: OVCAR-4 ovarian
HT29 colon = test system: HT29 colon
OVCAR-8 ovarian = test system: OVCAR-8 ovarian
MDA-MB-435 = test system: MDA-MB-435
HCC-2998 colon = test system: HCC-2998 colon
RXF 393 renal = test system: RXF 393 renal
786-0 renal = test system: 786-0 renal
UO-31 renal = test system: UO-31 renal
SK-MEL-5 melanoma = test system: SK-MEL-5 melanoma
DU-145 prostate = test system: DU-145 prostate
SNB-19 CNS = test system: SNB-19 CNS
NCI-H522 lung = test system: NCI-H522 lung
K-562 leukemia = test system: K-562 leukemia
NCI-H226 lung = test system: NCI-H226 lung
BT-549 breast = test system: BT-549 breast
HS 578T breast = test system: HS 578T breast
EKVX NSCLC = test system: EKVX NSCLC
CCRF-CEM leukemia = test system: CCRF-CEM leukemia
HCT-116 colon = test system: HCT-116 colon
MOLT-4 leukemia = test system: MOLT-4 leukemia
LOX IMVI melanoma = test system: LOX IMVI melanoma
UACC-62 melanoma = test system: UACC-62 melanoma
TK-10 renal = test system: TK-10 renal
OVCAR-5 ovarian = test system: OVCAR-5 ovarian
IGROV1 ovarian = test system: IGROV1 ovarian
HL-60(TB) leukemia = test system: HL-60(TB) leukemia
ACHN renal = test system: ACHN renal
UACC-257 melanoma = test system: UACC-257 melanoma
MCF7 breast = test system: MCF7 breast
SK-OV-3 ovarian = test system: SK-OV-3 ovarian
MDA-MB-231 breast = test system: MDA-MB-231 breast
HOP-92 NSCLC = test system: HOP-92 NSCLC
T-47D breast = test system: T-47D breast
SF-268 CNS = test system: SF-268 CNS
NCI-H460 lung = test system: NCI-H460 lung
MALME-3M melanoma = test system: MALME-3M melanoma
SF-539 CNS = test system: SF-539 CNS
A549 NSCLC = test system: A549 NSCLC

C=CCc1cc(O)ccc1O
GI50 (SW-620 colon): 21.6 µM
TGI (SW-620 colon): 44.8 µM
GI50 (COLO 205 colon): > 100 µM
TGI (COLO 205 colon): > 100 µM
GI50 (KM12 colon): 13.2 µM
TGI (KM12 colon): 65.1 µM
GI50 (A498 renal): > 100 µM
TGI (A498 renal): > 100 µM
GI50 (CAKI-1 renal): 23.9 µM
TGI (CAKI-1 renal): > 100 µM
GI50 (SK-MEL-28 melanoma): > 100 µM
TGI (SK-MEL-28 melanoma): > 100 µM
GI50 (NCI/ADR-RES ovarian): 22.7 µM
TGI (NCI/ADR-RES ovarian): > 100 µM
GI50 (SK-MEL-2 melanoma): 85.5 µM
TGI (SK-MEL-2 melanoma): > 100 µM
GI50 (HCT-15 colon): 36 µM
TGI (HCT-15 colon): > 100 µM
GI50 (U251 CNS): 36.4 µM
TGI (U251 CNS): > 100 µM
GI50 (SNB-75 CNS): 5.74 µM
TGI (SNB-75 CNS): > 100 µM
GI50 (OVCAR-3 ovarian): 7.64 µM
TGI (OVCAR-3 ovarian): 20.7 µM
GI50 (RPMI-8226 leukemia): 2.6 µM
TGI (RPMI-8226 leukemia): 34.1 µM
GI50 (HOP-62 NSCLC): 29.8 µM
TGI (HOP-62 NSCLC): > 100 µM
GI50 (NCI-H23 lung): > 100 µM
TGI (NCI-H23 lung): > 100 µM
GI50 (PC-3 prostate): 12.5 µM
TGI (PC-3 prostate): > 100 µM
GI50 (SN12C renal): 11 µM
TGI (SN12C renal): 49.4 µM
GI50 (SF-295 CNS): 49.5 µM
TGI (SF-295 CNS): > 100 µM
GI50 (SR leukemia): 9.14 µM
TGI (SR leukemia): > 100 µM
GI50 (OVCAR-4 ovarian): 14 µM
TGI (OVCAR-4 ovarian): 27 µM
GI50 (HT29 colon): 80.2 µM
TGI (HT29 colon): > 100 µM
GI50 (OVCAR-8 ovarian): 28.7 µM
TGI (OVCAR-8 ovarian): > 100 µM
GI50 (MDA-MB-435): 19.9 µM
TGI (MDA-MB-435): 57.1 µM
GI50 (HCC-2998 colon): > 100 µM
TGI (HCC-2998 colon): > 100 µM
GI50 (RXF 393 renal): 26.3 µM
TGI (RXF 393 renal): > 100 µM
GI50 (786-0 renal): 22.8 µM
TGI (786-0 renal): > 100 µM
GI50 (UO-31 renal): 11 µM
TGI (UO-31 renal): 24.4 µM
GI50 (SK-MEL-5 melanoma): 43.3 µM
TGI (SK-MEL-5 melanoma): > 100 µM
GI50 (DU-145 prostate): 85 µM
TGI (DU-145 prostate): > 100 µM
GI50 (SNB-19 CNS): > 100 µM
TGI (SNB-19 CNS): > 100 µM
GI50 (NCI-H522 lung): 2.49 µM
TGI (NCI-H522 lung): 11.1 µM
GI50 (K-562 leukemia): 17.7 µM
TGI (K-562 leukemia): > 100 µM
GI50 (NCI-H226 lung): 44.2 µM
TGI (NCI-H226 lung): > 100 µM
GI50 (BT-549 breast): 6.16 µM
TGI (BT-549 breast): > 100 µM
GI50 (HS 578T breast): 23.2 µM
TGI (HS 578T breast): > 100 µM
GI50 (EKVX NSCLC): 41.1 µM
TGI (EKVX NSCLC): > 100 µM
GI50 (CCRF-CEM leukemia): 2.34 µM
TGI (CCRF-CEM leukemia): 14.5 µM
GI50 (HCT-116 colon): 16.8 µM
TGI (HCT-116 colon): 31.1 µM
GI50 (MOLT-4 leukemia): 5.87 µM
TGI (MOLT-4 leukemia): 68.9 µM
GI50 (LOX IMVI melanoma): 17 µM
TGI (LOX IMVI melanoma): 48.8 µM
GI50 (UACC-62 melanoma): 25.2 µM
TGI (UACC-62 melanoma): > 100 µM
GI50 (TK-10 renal): 24.9 µM
TGI (TK-10 renal): 69.2 µM
GI50 (OVCAR-5 ovarian): 26.7 µM
TGI (OVCAR-5 ovarian): > 100 µM
GI50 (IGROV1 ovarian): 43.4 µM
TGI (IGROV1 ovarian): > 100 µM
GI50 (HL-60(TB) leukemia): 2.53 µM
TGI (HL-60(TB) leukemia): 7.04 µM
GI50 (ACHN renal): 15.1 µM
TGI (ACHN renal): 28.3 µM
GI50 (UACC-257 melanoma): > 100 µM
TGI (UACC-257 melanoma): > 100 µM
GI50 (MCF7 breast): 44.3 µM
TGI (MCF7 breast): > 100 µM
GI50 (SK-OV-3 ovarian): 94.8 µM
TGI (SK-OV-3 ovarian): > 100 µM
GI50 (MDA-MB-231 breast): 14.1 µM
TGI (MDA-MB-231 breast): > 100 µM
GI50 (HOP-92 NSCLC): 42.4 µM
TGI (HOP-92 NSCLC): > 100 µM
GI50 (T-47D breast): 16.9 µM
TGI (T-47D breast): 84.4 µM
GI50 (SF-268 CNS): 16.5 µM
TGI (SF-268 CNS): > 100 µM
GI50 (NCI-H460 lung): 46.8 µM
TGI (NCI-H460 lung): > 100 µM
GI50 (MALME-3M melanoma): 23.6 µM
TGI (MALME-3M melanoma): > 100 µM
GI50 (SF-539 CNS): 14.2 µM
TGI (SF-539 CNS): 70.2 µM
GI50 (A549 NSCLC): > 100 µM
TGI (A549 NSCLC): > 100 µM
